According to the NIST ThermoML archive (doi:10.1021/acs.jced.9b00046):

Details: 99.6 kPa, Liquid; for viscosity: Capillary tube (Ostwald / Ubbelohde) method; for mass density: Vibrating tube method

CNC(C)=O [N-methylacetamide]
Details | mass density [kg/m3] | viscosity [mPa·s]
308.15 K | 945.71 | 3.488
313.15 K | 941.53 | 3.073
318.15 K | 937.33 | 2.723
323.15 K | 933.16 | 2.438
328.15 K | 928.93 | 2.194
